Patent publication US20140031388A1, “AKT INACTIVATION BY TOCOPHERYL DERIVATIVES” (priority 2012, published 2014)
Where two headings read alike, the source gives them in different places.

Assays:
LNCaP cells = experiment: MTT viability assay, LNCaP; format: cell-based; conditions: Homo sapiens, 1% FBS-containing or serum-free RPMI 1640 medium for 24 h
Protocol: (§1) The prostate cancer cell lines, LNCaP and PC-3, were purchased from American Type Culture Collection (Manassas, Va.) and maintained in RPMI 1640 medium containing 10% heat-inactivated fetal bovine serum at 37° C. in a humidified incubator containing 5% CO2. The LNCaP-abl cells were a generous gift from Dr. Qianben Wang (The Ohio State University). Normal prostate epithelial cells were purchased from Lonza (Walkersville, Md.) and were cultured in the vendor-recommended defined prostate epithelial cell growth medium. For experiments, LNCaP cells were plated on poly-D-lysine-coated culture flasks at a density of 12,000 cells per cm^2 surface area for 24 hours, followed by treatment with test agents in serum-free RPMI 1640 medium. The α- and γ-tocopherols were purchased from Sigma-Aldrich (St. Louis, Mo.). The tocopherol derivatives, α- and γ-VE5, were synthesized by the inventors.
(§2) LNCaP cells were plated into poly-D-lysine-coated 96-well plates and PC-3 and LNCaP-abl cells into uncoated plates at the density of 5,000 cells per well in the presence of 10% FBS. Normal prostate epithelial cells were plated into uncoated plates at a density of 8,000 cells per well. […] After 24 hours of treatment, cells were incubated with MTT [3-(4,5-dimethylthiazol-2-yl)-2,5-diphenyl-2H-tetrazolium bromide] (TCI America; 0.5 mg/ml, final concentration) for an additional 2 hours. The medium was then removed from each well and replaced with DMSO to dissolve the reduced MTT dye for subsequent colorimetric measurement of absorbance at 595 nm. Cell viabilities are calculated as percentages of that in the corresponding vehicle-treated control group.

[1] = target: T1, PH domain of Akt (GST-PH domain fusion protein) (Homo sapiens, UniProt P31749); experiment: Surface plasmon resonance binding, Akt PH domain; conditions: Table 3; binding affinities to the Akt PH domain; read-out: Kd
T1 construct: made in house
T1 sequence (P31749 5-108 limits assumed): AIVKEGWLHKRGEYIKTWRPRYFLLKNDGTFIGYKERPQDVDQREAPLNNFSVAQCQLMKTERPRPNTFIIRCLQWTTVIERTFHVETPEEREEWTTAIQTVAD
Excerpt: The cDNA fragments corresponding to the putative PH domain sequences of PHLPP1 (+115 to +372), PDK1 (+1225 to +1671), Akt1 (+1 to +447) and ILK (+538 to +646) were PCR-amplified using the plasmids pcDNA-HA-PHLPP1, pWZL-Neo-Myr-FLAG-PDPK1, pcDNA-HA-PKB-T308D-S473D, and pCMV-SPORT-ILK (Addgene) as templates. The PCR products were then cloned into EcoRI/XhoI sites of the pGEX-4T1 expression vector (GE Healthcare Life Sciences) to generate four constructs (pGEX-4T1-PHLPP1, pGEX-4T1-PDPK1, pGEX-4T1-AKT1, pGEX-4T1-ILK) for the expression of GST-PH domain fusion proteins. The mutated Akt1 Y38G PH domain was generated from pGEX-4T1-AKT1 by site-directed mutagenesis using the QuikChange II XL Site-Directed Mutagenesis Kit (Agilent Technologies). The expression and purification of GST-PH domain fusion proteins were performed essentially as described previously. Thomas et al., Curr Biol 12, 1256 (2002). The purified PH domains were analyzed by SDS-PAGE using an overloaded gel with purities were estimated to be >95% using ImageJ software.
Binding experiments were performed using a Biacore T100 system (GE Healthcare, Piscataway, N.J.). The GST-PH domain fusion proteins were immobilized on a CM5 S Sensorchip using Biacore's Amine Coupling Kit to a level of 17,000 response units. VE5 compounds and di-octanoyl PIP3 at concentrations ranging from 0.1 to 100 μM and 1 to 20 μm, respectively, were injected at a high flow rate (30 μL/min) over the biosensor surface for binding analyses. DMSO concentrations in all samples and running buffer were 1% (v/v) or less. Data were analyzed using Biacore T100 Evaluation Software.

PC-3 cells = experiment: MTT viability assay, PC-3; format: cell-based; conditions: Homo sapiens
Protocol: as §1, §2

[2] = tested on: Normal prostate epithelial cells; experiment: Viability / apoptosis in normal prostate epithelial cells; format: cell-based
Protocol: as §1
(§3) LNCaP cells were plated into poly-D-lysine-coated 96-well plates and PC-3 and LNCaP-abl cells into uncoated plates at the density of 5,000 cells per well in the presence of 10% FBS. Normal prostate epithelial cells were plated into uncoated plates at a density of 8,000 cells per well. Exposure to test agents in serum-free medium was initiated 24 hours later. After 24 hours of treatment, cells were incubated with MTT [3-(4,5-dimethylthiazol-2-yl)-2,5-diphenyl-2H-tetrazolium bromide] (TCI America; 0.5 mg/ml, final concentration) for an additional 2 hours. The medium was then removed from each well and replaced with DMSO to dissolve the reduced MTT dye for subsequent colorimetric measurement of absorbance at 595 nm. Cell viabilities are calculated as percentages of that in the corresponding vehicle-treated control group.

[3] = tested on: mTORC2 (mTOR, rictor, SGK, PKCα); experiment: Western blot of mTORC2 components and downstream targets; format: cell-based
Protocol: (§4) Cells were exposed to the test agents in 10-cm dishes for 24 hours and then collected by scraping. The cell pellets were washed once with PBS, and then lysed at 4° C. over 30 min of incubation in a sodium dodecyl sulfate (SDS) lysis buffer containing 1% SDS, 50 mM Tris HCl (pH 8.1), 10 mM EDTA and […] protease inhibitor cocktail (Sigma-Aldrich). The cell debris was pelleted by centrifugation for 20 min at 14,000×g, and 1 μl of each supernatant was used for determination of protein concentration using a colorimetric bicinchoninic assay (Pierce, Rockford, Ill.). The remaining sample was added to equal volume of 2×SDS-polyacrylamide gel electrophoresis sample loading buffer (62.5 mM Tris-HCl, pH 6.8, 4% SDS, 5% β-mercaptoethanol, 20% glycerol, 0.1% bromophenol blue), followed by incubation in boiling water for 5 min. Equivalent amounts of total protein were resolved in SDS-polyacrylamide gels, and then transferred to nitrocellulose membranes using a semidry transfer cell. The transblotted membrane was washed twice with Tris-buffered saline containing 0.1% Tween 20 (TBST). After blocking with TBST containing 5% nonfat milk for 40 min, the membrane was incubated with the appropriate primary antibody (1:1000) in TBST-1% nonfat milk at 4° C. overnight. The membrane was then washed three times with TBST for a total of 15 min, followed by incubation with goat anti-rabbit or anti-mouse IgG-horseradish peroxidase conjugates (1:2000) for 1 hour at room temperature and four washes with TBST for a total of 1 hour. The immunoblots were visualized by enhanced chemiluminescence (GE Healthcare Life Sciences).

LNCaP and PC-3 cells = experiment: MTT viability assay, one value stated for both prostate cancer lines; format: cell-based; conditions: MTT, serum-free medium; one value for LNCaP and PC-3; read-out: IC50, antiproliferative effect / viability
Protocol: as §1, §3

[4] = tested on: phosphorylation of Ser473 in Akt; experiment: Western blot of Akt phosphorylation at Ser473; format: cell-based; conditions: LNCaP and PC-3 cells, Thr308 not altered
Protocol: as §4

[5] = PC-3, 1% FBS-containing or serum-free RPMI 1640 medium for 24 h, read-out: IC50 (μM) PC-3
[6] = Table 3, antitumor activities against PC-3 cells, read-out: IC50
[7] = PC-3, Table 4, effect of chain length on antiproliferative activity, read-out: IC50

Row | IC50 (LNCaP cells) | IC50 (PC-3 cells; [5]) | SMILES | also measured
1 | – | 8.5 µM | CCCCCCCCC1(C)CCc2cc(O)cc(F)c2O1 (stereo not drawn) [Compound 12, 8-fluoro-2-methyl-2-octylchroman-6-ol] | IC50 (PC-3 cells; [7]): 8.5 µM
2 | – | > 30 µM | COCCCC1(C)CCc2cc(O)cc(F)c2O1 (stereo not drawn) [Compound 11, 8-fluoro-2-(3-methoxypropyl)-2-methyl-chroman-6-ol] | IC50 (PC-3 cells; [7]): > 30 µM
3 | – | 9 µM | Cc1cc(O)cc2c1OC(C)(CCCC(C)C)CC2 (stereo not drawn) [Compound 2, 2,8-dimethyl-2-(4-methylpentyl)chroman-6-ol] | Kd [1]: 0.6 µM; IC50 (PC-3 cells; [6]): 9 µM
4 | – | 27 µM | CC(C)CCCC1(C)CCc2cc(O)cc(O)c2O1 (stereo not drawn) [Compound 4, 2-methyl-2-(4-methylpentyl)chroman-6,8-diol] | Kd [1]: 2 µM; IC50 (PC-3 cells; [6]): 27 µM
5 | – | 7 µM | CC(C)CCCC1(C)CCc2cc(O)cc(Br)c2O1 (stereo not drawn) [Compound 8, 8-bromo-2-methyl-2-(4-methylpentyl)-chroman-6-ol] | Kd [1]: 0.65 µM; IC50 (PC-3 cells; [6]): 7 µM
6 | – | 9 µM | CCc1ccc(CCC2(C)CCc3cc(O)cc(F)c3O2)cc1 (stereo not drawn) [Compound 13, 2-(4-ethylphenethyl)-8-fluoro-2-methyl-chroman-6-ol] | IC50 (PC-3 cells; [7]): 9 µM
7 | – | 28 µM | COc1cc(O)cc2c1OC(C)(CCCC(C)C)CC2 (stereo not drawn) [Compound 5, 8-methoxy-2-methyl-2-(4-methylpentyl)-chroman-6-ol] | Kd [1]: 3.1 µM; IC50 (PC-3 cells; [6]): 28 µM
8 | – | 7 µM | CC(C)CCCC1(C)CCc2cc(O)cc(F)c2O1 (stereo not drawn) [Compound 7, 8-fluoro-2-methyl-2-(4-methylpentyl)-chroman-6-ol] | Kd [1]: 0.5 µM; IC50 (PC-3 cells; [6]): 7 µM

Second part, the molecule before the results:

Row | SMILES | IC50 (LNCaP cells) | IC50 (PC-3 cells; [5]) | also measured
9 | CC(C)CCCC1(C)CCc2c(O)cccc2O1 (racemic) [Compound 31, 2-methyl-2-(4-methylpentyl)chroman-5-ol] | 18 µM | – | –
10 | Cc1c(O)cc2c(c1C)NC(C)(CCCC(C)C)CC2 (stereo not drawn) [Compound 9, 2,7,8-trimethyl-2-(4-methylpentyl)-1,2,3,4-tetrahydroquinolin-6-ol] | – | 15 µM | Kd [1]: 0.1 µM; IC50 (PC-3 cells; [6]): 15 µM
11 | CC(C)CCCC1(C)CCc2cc(O)ccc2O1 (racemic) [Compound 29, 2-methyl-2-(4-methylpentyl)chroman-6-ol] | 40 µM | – | –
12 | Cc1cc2c(cc1O)C(=O)CC(C)(CCCC(C)C)O2 (racemic) [Compound 34, 6-hydroxy-2,7-dimethyl-2-(4-methylpentyl)chroman-4-one] | 30 µM | – | –
13 | Cc1c(C)c2c(c(C)c1O)CC[C@@](C)(CCCC(C)CCCC(C)C)O2 (stereo partly drawn) [Compound 28, (2R)-2-(4,8-dimethylnonyl)-2,5,7,8-tetramethylchroman-6-ol] | 42 µM | – | –
14 | CC(C)CCCC1(C)CCc2ccc(O)c(O)c2O1 (racemic) [Compound 35, 2-methyl-2-(4-methylpentyl)chroman-7,8-diol] | > 50 µM | – | –
15 | Cc1c(O)cc2c(c1C)O[C@](C)(CCCC(C)CCCC(C)C)CC2 (stereo partly drawn) [Compound 27, (2R)-2-(4,8-dimethylnonyl)-2,7,8-trimethylchroman-6-ol] | 30 µM | – | –
16 | COc1ccc2c(c1)CCC(C)(CCCC(C)C)O2 (racemic) [Compound 30, 6-methoxy-2-methyl-2-(4-methylpentyl)-chroman] | 40 µM | – | –
17 | CC(C)CCCC1(C)CCc2cc(O)cc(C(F)(F)F)c2O1 (racemic) [Compound 3, 2-methyl-2-(4-methylpentyl)-8-(trifluoro-methyl)chroman-6-ol] | – | 8 µM | Kd [1]: 0.7 µM; IC50 (PC-3 cells; [6]): 8 µM
18 | Cc1c(O)cc2c(c1C)O[C@](C)(CCC[C@H](C)CCC[C@H](C)CCCC(C)C)CC2 [γ-tocopherol, reference compound] | – | – | apoptosis in normal prostate epithelial cells [2]: resistant; abundance or phosphorylation of mTORC2 components and targets (mTOR, rictor, SGK, PKCα) [3]: no effect; IC50 (LNCaP and PC-3 cells): 100 to 150 µM; effect on phosphorylation of Akt at Ser473 [4]: dose-dependently reduced
19 | CCCCCCCCC1(C)CCc2cc(O)cc(C)c2N1 (stereo not drawn) [Compound 10, 2,8-dimethyl-2-octyl-1,2,3,4-tetrahydro-quinolin-6-ol] | – | 8.5 µM | IC50 (PC-3 cells; [7]): 8.5 µM
20 | CC(C)CCCC1(C)CCc2cc(N)ccc2O1 (racemic) [Compound 32, 2-methyl-2-(4-methylpentyl)chroman-6-amine] | > 50 µM | – | –
21 | CC(C)CCCC1(C)CC(=O)c2c(O)cc(N3CCCC3)cc2O1 (racemic) [Compound 37, 5-hydroxy-2-methyl-2-(4-methylpentyl)-7-(pyrrolidin-1-yl)chroman-4-one] | > 50 µM | – | –
22 | CC(C)CCCC1(C)CC(=O)c2cc(O)ccc2O1 (racemic) [Compound 33, 6-hydroxy-2-methyl-2-(4-methylpentyl)chroman-4-one] | 30 µM | – | –
23 | Cc1c(O)cc2c(c1C)OC(C)(CCCC(C)C)CC2 (racemic) [rac-VE5] | 20 µM | – | –
24 | CC(C)CCCC1(C)CCc2c(O)cc(N3CCCC3)cc2O1 (racemic) [Compound 36, 2-methyl-2-(4-methylpentyl)-7-(pyrrolidin-1-yl)chroman-5-ol] | 21 µM | – | –
